Structures can show the parent of a compound that is named as a salt.
Tested on: E. coli clinical isolates
Experiment: screen of strains in broth medium containing FAC
Type: cell-based
Parameters: key to colour: Red, Green, Black or Purple mean strong colour; Red, Green, Black or Purple mean strong colour; Red, Green, Black or Purple mean strong colour; Red, Green, Black or Purple mean strong colour; +/− means less colour than strong; Tr means a trace of colour, less than +/−; — means no colour
Conditions: for colour: 37° C. 18 hours
Description: In order to obtain a fuller picture of the sensitivity of the substrates, they were screened with 100 different clinical isolates of E. coli in a liquid medium containing FAC. The isolates were chosen at random from the Microbiology Department, Freeman Hospital, Newcastle Upon Tyne, UK. The effectiveness of the new substrates was compared with three other media which all contained indoxyl-β-D-glucuronides. One was a commercial medium, CPS ID 3 (bioMérieux SA, Lyon, France). […] This medium was employed as a control. Among the β-D-glucuronidase producing strains of E. coli there is a large variation in the quantity of the enzyme produced and it is almost certain that the CPS ID 3 medium has been rigorously optimised to allow good growth of all the target organisms and maximum expression of the target enzymes. Therefore, two indoxyl glucuronides, X-β-D-glucuronide CHA salt and Rose-β-D-glucuronide CHA salt were also tested in a simple agar medium to allow a direct comparison of the sensitivity of these Indoxyl glucuronides when used in a medium that has not been optimised for the growth of the target organism. The comparison of the results for Rose-β-D-glucuronide and the CPS ID 3 medium was of particular significance as the commercial medium also uses Rose-β-D-glucuronide for the detection of E. coli. For consistency, the four glucuronides were all chosen as their CHA salts. As already stated, it is not anticipated that the salt form is critical to their performance. Currently. X-β-D-glucuronide is often used as either the CHA salt or the sodium salt. Brenner and colleagues [K. P. Brenner et al, Appl. Environ. Microbiol., 59, 3534-3544, (1993)] found no difference in the performance of the CHA and sodium salt forms with their application using indoxyl-β-D-glucuronide, neither in respect of colour development nor in the recovery of E. coli.
The two indoxyl glucuronides used produce insoluble endpoints following hydrolysis, as does the CPS ID 3 medium. It was therefore necessary to test these two substrates on agar plates. In contrast, catechol-β-D-glucuronide (1) and DHN-β-D-glucuronide (2b) give much more soluble endpoints best suited to liquid media and were therefore tested in a broth medium. Each broth was prepared using proteose peptone (Oxoid, Basingstoke, UK) (2 g), NaCl (1 g) and FAC (100 mg) in DI water (180 mL). This mixture was autoclaved and cooled to room temperature before being dispensed into bijoux (100×1.8 mL). Catechol β-D-glucuronide CHA salt (1) or DHN-β-D-glucuronide CHA salt (2b) (60 mg) were each dissolved in water (20 mL) and filtered to sterilize before being aseptically dispensed into successive bijoux (0.2 mL) containing the broth solution. The broth/substrate solutions were then inoculated with bacterial suspensions made up to 0.5 McFarland standard (2 μL per bijoux). X-β-D-glucuronide CHA salt (Glycosynth Ltd, Warrington, UK) (10 mg) was dissolved in NMP (200 μL). Rose-β-D-glucuronide CHA salt (Glycosynth Ltd, Warrington, UK) (20 mg) was dissolved in NMP (200 μL). These solutions were then added to Columbia agar (Oxoid, Basingstoke, UK) (100 mL) and inoculated with bacterial suspensions made up to 0.5 McFarland standard (1 μL). The plates and broths were incubated at 37° C. for 18 hours in air.

[1] = 100 E. coli strains after 18 h incubation, broth

Q: With `O=C(O)C1OC(Oc2ccccc2O)C(O)C(O)C1O` [Compound 1, Catechol β-D-Glucuronide CHA Salt] as the compound, how does the “% Sensitivity” value [1] read?
A: 83%

Q: What about the Negative strains [1] of the same compound?
A: 17

Q: And the Positive strains [1]?
A: 83

Q: And the colour (E. coli 260262P, broth)?
A: Black

Q: And the colour (E. coli 260280Z, broth)?
A: Black

Q: What about the colour (E. coli 260310H, broth) of the same compound?
A: Black

Q: What about the colour (E. coli 260313A, broth) of the same compound?
A: —

Q: And the colour (E. coli 260316T, broth)?
A: —

Q: And the colour (E. coli 260327V, broth)?
A: Black

Q: And the colour (E. coli 260330Y, broth)?
A: Black

Q: What about the colour (E. coli 260333P, broth) of the same compound?
A: —

Q: What about the colour (E. coli 260345F, broth) of the same compound?
A: Black

Q: What about the colour (E. coli 260348K, broth) of the same compound?
A: Black

Q: What about the colour (E. coli 260354W, broth) of the same compound?
A: Black

Q: And the colour (E. coli 260364H, broth)?
A: Black

Q: What about the colour (E. coli 260370C, broth) of the same compound?
A: Black

Q: And the colour (E. coli 260375E, broth)?
A: Black

Q: And the colour (E. coli 260390B, broth)?
A: —

Q: And the colour (E. coli 260396Z, broth)?
A: Black

Q: What about the colour (E. coli 260398Q, broth) of the same compound?
A: Black

Q: And the colour (E. coli 260400N, broth)?
A: —

Q: What about the colour (E. coli 260401Q, broth) of the same compound?
A: Black

Q: What about the colour (E. coli 260402H, broth) of the same compound?
A: Black

Q: And the colour (E. coli 260404W, broth)?
A: Black

Q: What about the colour (E. coli 260405P, broth) of the same compound?
A: Black

Q: And the colour (E. coli 260406A, broth)?
A: —

Q: What about the colour (E. coli 260406Y, broth) of the same compound?
A: Black

Q: And the colour (E. coli 260407F, broth)?
A: Black

Q: What about the colour (E. coli 260408C, broth) of the same compound?
A: Black

Q: And the colour (E. coli 260411Z, broth)?
A: Black

Q: What about the colour (E. coli 260412Q, broth) of the same compound?
A: Black

Q: And the colour (E. coli 260414H, broth)?
A: Black

Q: What about the colour (E. coli 260415Y, broth) of the same compound?
A: Black

Q: What about the colour (E. coli 260416W, broth) of the same compound?
A: Black

Q: And the colour (E. coli 260417P, broth)?
A: Black

Q: What about the colour (E. coli 260422Y, broth) of the same compound?
A: Black

Q: And the colour (E. coli 260424P, broth)?
A: Black

Q: What about the colour (E. coli 260425A, broth) of the same compound?
A: Black

Q: And the colour (E. coli 260426F, broth)?
A: Black

Q: What about the colour (E. coli 260428T, broth) of the same compound?
A: Black

Q: What about the colour (E. coli 260431N, broth) of the same compound?
A: Black

Q: What about the colour (E. coli 260432E, broth) of the same compound?
A: Black

Q: What about the colour (E. coli 260433H, broth) of the same compound?
A: Black

Q: What about the colour (E. coli 260434Y, broth) of the same compound?
A: Black

Q: What about the colour (E. coli 260435W, broth) of the same compound?
A: Black

Q: And the colour (E. coli 260436P, broth)?
A: Black

Q: What about the colour (E. coli 260437A, broth) of the same compound?
A: —

Q: And the colour (E. coli 260438F, broth)?
A: Black

Q: What about the colour (E. coli 260439C, broth) of the same compound?
A: Black

Q: What about the colour (E. coli 260440S, broth) of the same compound?
A: Black

Q: What about the colour (E. coli 260441G, broth) of the same compound?
A: Black

Q: What about the colour (E. coli 260458Y, broth) of the same compound?
A: Black

Q: What about the colour (E. coli 260459W, broth) of the same compound?
A: Black

Q: And the colour (E. coli 260463D, broth)?
A: Black

Q: What about the colour (E. coli 260464G, broth) of the same compound?
A: Black

Q: And the colour (E. coli 260471B, broth)?
A: —

Q: What about the colour (E. coli 260478N, broth) of the same compound?
A: —

Q: What about the colour (E. coli 260479Q, broth) of the same compound?
A: Black

Q: And the colour (E. coli 260480M, broth)?
A: Black

Q: And the colour (E. coli 260481J, broth)?
A: Black

Q: And the colour (E. coli 260483R, broth)?
A: —

Q: And the colour (E. coli 260485D, broth)?
A: Black

Q: And the colour (E. coli 260486L, broth)?
A: Black

Q: What about the colour (E. coli 260492J, broth) of the same compound?
A: Black

Q: What about the colour (E. coli 260494B, broth) of the same compound?
A: Black

Q: And the colour (E. coli 260495R, broth)?
A: Black

Q: What about the colour (E. coli 260497D, broth) of the same compound?
A: Black

Q: What about the colour (E. coli 260502G, broth) of the same compound?
A: Black

Q: What about the colour (E. coli 260503Z, broth) of the same compound?
A: Black

Q: What about the colour (E. coli 260504N, broth) of the same compound?
A: Black

Q: What about the colour (E. coli 260505Q, broth) of the same compound?
A: —

Q: What about the colour (E. coli 260506E, broth) of the same compound?
A: Black

Q: And the colour (E. coli 260508Y, broth)?
A: Black

Q: And the colour (E. coli 260509W, broth)?
A: Black

Q: What about the colour (E. coli 260510R, broth) of the same compound?
A: Black

Q: And the colour (E. coli 260511X, broth)?
A: Black

Q: And the colour (E. coli 260514G, broth)?
A: —

Q: And the colour (E. coli 260515Z, broth)?
A: Black

Q: What about the colour (E. coli 260521S, broth) of the same compound?
A: Black

Q: And the colour (E. coli 260522Z, broth)?
A: Black

Q: And the colour (E. coli 260532S, broth)?
A: Black

Q: And the colour (E. coli 260533G, broth)?
A: Black

Q: And the colour (E. coli 260536Q, broth)?
A: Black

Q: What about the colour (E. coli 260537E, broth) of the same compound?
A: —

Q: What about the colour (E. coli 260538H, broth) of the same compound?
A: —

Q: And the colour (E. coli 260539Y, broth)?
A: Black

Q: And the colour (E. coli 260541R, broth)?
A: Black

Q: And the colour (E. coli 260545G, broth)?
A: Black

Q: And the colour (E. coli 260547N, broth)?
A: Black

Q: And the colour (E. coli 260548Q, broth)?
A: Black

Q: What about the colour (E. coli 260549E, broth) of the same compound?
A: Black

Q: What about the colour (E. coli 260553X, broth) of the same compound?
A: —

Q: What about the colour (E. coli 260554D, broth) of the same compound?
A: Black

Q: And the colour (E. coli 260555L, broth)?
A: Black

Q: What about the colour (E. coli 260563B, broth) of the same compound?
A: Black

Q: What about the colour (E. coli 260564R, broth) of the same compound?
A: Black

Q: What about the colour (E. coli 260578D, broth) of the same compound?
A: —

Q: What about the colour (E. coli 2603121P, broth) of the same compound?
A: —

Q: What about the colour (E. coli 2604399E, broth) of the same compound?
A: Black

Q: What about the colour (E. coli O157 non-toxigenic, broth) of the same compound?
A: —

Q: What about the “colour of positive solutions” value (broth with FAC, in words) of the same compound?
A: greyish-black solutions, sometimes with black flakes

From patent publication US9879303B2, “Chromogenic glucuronidase substrates and uses” (Glycosynth Limited, priority 2013, dated 2018)
